The text below walks through data of PubChem BioAssay AID1627 (PCMD, 2009).

The target in the assay is Procathepsin L (Homo sapiens) (UniProt P07711). Nature of the assay: CTSL inhibitor potency, thiol present – biochemical, cysteine present, dose response (AID 1627). The note with it: purified cathepsin L, fluorogenic substrate, with cysteine.

Inconclusive results are not listed. Calls of active or inactive are those of the source. No rule for the calls is given here. Where only a bound is given, the exact number is not on record here.

Sequence of Procathepsin L (Homo sapiens) (P07711 114-288 limits assumed): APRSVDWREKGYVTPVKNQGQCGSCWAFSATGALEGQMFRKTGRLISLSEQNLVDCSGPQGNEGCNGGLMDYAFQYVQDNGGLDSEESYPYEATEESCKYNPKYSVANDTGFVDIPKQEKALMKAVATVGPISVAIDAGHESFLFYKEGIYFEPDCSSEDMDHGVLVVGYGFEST
Sequence of Procathepsin L (Homo sapiens) (P07711 292-333 limits assumed): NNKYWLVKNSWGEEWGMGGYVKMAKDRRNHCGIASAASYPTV

As a reminder, the IC50 is the concentration that inhibits the measured activity by half. As for `O=S(=O)(/N=S1/CC=CCN1S(=O)(=O)c1ccccc1)c1ccccc1` (stereo not given), the IC50 was > 50 µM (inactive).

For the molecule `N#CC1=C(N)Oc2c(sc3ccccc23)C1c1ccco1` (stereo not given), the IC50 was > 50 µM (inactive).

As for `CC(=O)c1c(O)n(C)c(=S)n(-c2ccccc2)c1=O`, the IC50 was > 50 µM (inactive).

On to `CC1=C(C(=O)Nc2ccc(F)cc2)C(c2cccc(C)c2)n2nc(CCCO)nc2N1` (stereo not given), for which the IC50 was > 50 µM (inactive).

For the molecule `CN1CCc2c(sc3ncn4nc(-c5ccccc5O)nc4c23)C1`, the IC50 is 32 µM.

Take `Nc1nc2n(n1)C1(CCCCC1)C1=C(CCCC1)N2`: the IC50 is > 50 µM (inactive).

Turning to `CCCCOc1ccc(C2C3CN(C(=O)OCC)CC=C3C(C#N)=C(N)C2(C#N)C#N)cc1OC` (stereo not given), the IC50 is > 50 µM (inactive).

`CCCCc1[nH]nc2c1C1(C(=O)N(CC)c3ccccc31)C(C#N)=C(N)O2` (stereo not given): the IC50 was > 50 µM (inactive).

`CC(=O)Nc1nc2n(n1)C(c1ccc(F)cc1)C=C(c1ccccc1)N2` (stereo not given): the IC50 was > 50 µM (inactive).

As for `COc1ccc(OC)c(C2C(C#N)=C(N)Oc3cc(C)n(Cc4ccccn4)c(=O)c32)c1` (stereo not given), the IC50 was > 50 µM (inactive).
